ChEMBL document CHEMBL1153818, “Integration of ligand and structure-based virtual screening for the identification of the first dual targeting agent for heat shock protein 90 (Hsp90) and tubulin” (J Med Chem, 2009)
Activity calls are given as the source filed them. The rule behind the calls is not given here.

What was measured:
MCF7 [1] = assay: Induction of ERalpha degradation in human MCF7 cells at 1 uM after 24 hrs by Western blot analysis; assay type: functional, cell-based
Bos taurus = organism: Bos taurus; assay: Inhibition of bovine tubulin polymerization
MCF7 [2] = assay: Induction of ERalpha degradation in human MCF7 cells at 200 uM after 24 hrs by Western blot analysis; assay type: functional, cell-based
[3] = target: Heat shock protein HSP 90-beta (Homo sapiens, UniProt P08238); assay: Inhibition of Hsp90 by FP ATP-site binding assay
Heat shock protein HSP 90-beta, sequence (P08238 whole entry): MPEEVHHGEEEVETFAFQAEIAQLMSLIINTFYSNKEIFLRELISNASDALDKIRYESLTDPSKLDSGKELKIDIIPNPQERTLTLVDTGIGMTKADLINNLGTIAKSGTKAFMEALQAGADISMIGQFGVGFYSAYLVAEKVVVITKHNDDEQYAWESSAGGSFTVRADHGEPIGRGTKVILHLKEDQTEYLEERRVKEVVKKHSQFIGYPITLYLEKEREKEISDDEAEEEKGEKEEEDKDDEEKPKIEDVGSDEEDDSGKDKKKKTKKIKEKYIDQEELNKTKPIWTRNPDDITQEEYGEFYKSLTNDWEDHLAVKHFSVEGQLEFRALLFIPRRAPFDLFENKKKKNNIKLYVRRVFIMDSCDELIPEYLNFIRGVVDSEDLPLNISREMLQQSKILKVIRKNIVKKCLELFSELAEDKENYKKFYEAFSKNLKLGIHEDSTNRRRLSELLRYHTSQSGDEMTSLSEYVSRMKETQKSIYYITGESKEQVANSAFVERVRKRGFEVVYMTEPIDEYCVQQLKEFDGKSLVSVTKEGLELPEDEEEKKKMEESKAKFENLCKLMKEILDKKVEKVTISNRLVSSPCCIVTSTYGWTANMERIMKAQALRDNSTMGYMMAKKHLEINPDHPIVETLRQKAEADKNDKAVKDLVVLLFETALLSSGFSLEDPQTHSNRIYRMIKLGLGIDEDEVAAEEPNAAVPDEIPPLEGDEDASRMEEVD

Row | SMILES | Activity (MCF7 [1]) | Activity (Bos taurus) | Activity (MCF7 [2]) | IC50 [3]
1 | C=CCNC1=C2C[C@@H](C)C[C@H](OC)[C@H](O)[C@@H](C)/C=C(\C)[C@H](OC(N)=O)[C@@H](OC)/C=C\C=C(/C)C(=O)NC(=CC1=O)C2=O | Active | – | – | –
2 | COc1cc(C(=O)n2ncc3cc(N)ccc32)cc(OC)c1OC | – | Dose-dependent effect | Active | 80.8 µM
